Here are results for 1 molecule from patent US20210188773A1, “NOVEL POLYMOPHS OF S-NITROSOCAPTOPRIL (CAP-NO) AND ITS PROCESS FOR PREPARATION” (FUZHOU UNIVERSITY, priority 2018, published 2021).

For the experiment, the system named is Pulmonary hypertension (PAH) rats. The experiment can be described thus: Effect on monocrotaline (MCT) pulmonary hypertension (PAH) model rats. In kind it is in vivo, rat.

Description: Pulmonary hypertension (PAH) rats, being monocrotaline (MCT) intraperitoneal injected, were divided into 4 groups: control group (n=7), 50 mg/kg captopril group (n=7), 10 mg/kg S-nitrosocaptopril group (n=7), 50 mg/kg S-nitrosocaptopril group (n=7) and health group (n=9). Rats of all groups were orally administered once a day for 30 days.

Turning to `C[C@H](CS)C(=O)N1CCC[C@H]1C(=O)O` [captopril, Captopril], for the setting “50 mg/kg oral once a day”, the “average pleural effusion of dead rats” value came out at 3.3 mL and the “mean right ventricular mass index (RVMI)” value turned out to be 53.8%. The “number of rats remaining (from 7)” value (50 mg/kg oral once a day for 30 days) is 3.
